Laboratory results reported in PubChem BioAssay AID334 (DTP/NCI, 2004).
Where “and” joins values, the source holds several entries; their conditions need not be identical. Identical values can stand only once. Inconclusive results and toxic doses are left out.

Test system: CD2F1 mice, intracerebral P388 leukemia, median survival T/C%
Experiment: NCI In Vivo Anticancer Drug Screen. Data for tumor model P388 Leukemia (intracerebral) in CD2F1 (CDF1) mice
Settings: endpoint: median survival time, higher = longer survival
Method: The antitumor activity of compounds was measured in mice bearing transplantable tumors. Survival or tumor size were measured and the results are expressed as the measurement made in the treated group (T) divided by the measurement made in the vehicle treated control group (C). The tumor model used in this assay is P388 Leukemia (intracerebral) in CD2F1 (CDF1) mice

[1] = dose: 8.0 mg/kg/injection, schedule: Q01DX009 (ip), vehicle: saline with Tween-80
[2] = dose: 16.0 mg/kg/injection, schedule: Q01DX009 (ip), vehicle: saline with Tween-80
[3] = dose: 32.0 mg/kg/injection, schedule: Q01DX009 (ip), vehicle: saline with Tween-80
[4] = dose: 64.0 mg/kg/injection, schedule: Q01DX009 (ip), vehicle: saline with Tween-80
[5] = dose: 128.0 mg/kg/injection, schedule: Q01DX009 (ip), vehicle: saline with Tween-80
[6] = dose: 256.0 mg/kg/injection, schedule: Q01DX009 (ip), vehicle: saline with Tween-80
[7] = dose: 512.0 mg/kg/injection, schedule: Q01DX009 (ip), vehicle: saline with Tween-80
[8] = dose: 8.0 mg/kg/injection, schedule: Q01DX009 (ip), vehicle: saline
[9] = dose: 12.5 mg/kg/injection, schedule: Q01DX009 (ip), vehicle: saline with Tween-80
[10] = dose: 50.0 mg/kg/injection, schedule: Q01DX009 (ip), vehicle: saline with Tween-80
[11] = dose: 100.0 mg/kg/injection, schedule: Q01DX009 (ip), vehicle: Klucel (hydroxypropylcellulose) (HPC)
[12] = dose: 128.0 mg/kg/injection, schedule: Q01DX005 (ip), vehicle: Klucel (hydroxypropylcellulose) (HPC)
[13] = dose: 256.0 mg/kg/injection, schedule: Q01DX005 (ip), vehicle: Klucel (hydroxypropylcellulose) (HPC)
[14] = dose: 25.0 mg/kg/injection, schedule: Q01DX009 (ip), vehicle: saline
[15] = dose: 50.0 mg/kg/injection, schedule: Q01DX009 (ip), vehicle: saline
[16] = dose: 100.0 mg/kg/injection, schedule: Q01DX009 (ip), vehicle: saline

## CCC(=O)O[C@H]1CC[C@H]2[C@@H]3CC[C@H]4CC(=O)[C@H](C)C[C@]4(C)[C@H]3CC[C@]12C
dose: 8.0 mg/kg/injection, schedule: Q01DX009 (ip), vehicle: Klucel (hydroxypropylcellulose) (HPC)
  T/C: 121 % of control and 105 % of control
[1]
  T/C: 100 % of control and 106 % of control
dose: 16.0 mg/kg/injection, schedule: Q01DX009 (ip), vehicle: Klucel (hydroxypropylcellulose) (HPC)
  T/C: 94 % of control and 103 % of control
[2]
  T/C: 100 % of control and 106 % of control
dose: 32.0 mg/kg/injection, schedule: Q01DX009 (ip), vehicle: Klucel (hydroxypropylcellulose) (HPC)
  T/C: 123 % of control and 98 % of control
[3]
  T/C: 97 % of control and 100 % of control
dose: 64.0 mg/kg/injection, schedule: Q01DX009 (ip), vehicle: Klucel (hydroxypropylcellulose) (HPC)
  T/C: 123 % of control and 100 % of control
[4]
  T/C: 116 % of control and 91 % of control
dose: 128.0 mg/kg/injection, schedule: Q01DX009 (ip), vehicle: Klucel (hydroxypropylcellulose) (HPC)
  T/C: 120 % of control and 102 % of control
[5]
  T/C: 95 % of control and 106 % of control
dose: 256.0 mg/kg/injection, schedule: Q01DX009 (ip), vehicle: Klucel (hydroxypropylcellulose) (HPC)
  T/C: 114 % of control and 94 % of control
[6]
  T/C: 100 % of control and 109 % of control
dose: 512.0 mg/kg/injection, schedule: Q01DX009 (ip), vehicle: Klucel (hydroxypropylcellulose) (HPC)
  T/C: 111 % of control
[7]
  T/C: 91 % of control and 106 % of control

## CCCCCc1cc(O)c2c(c1)OC(C)(C)[C@@H]1CCC(C)=C[C@@H]21
dose: 2.75 mg/kg/injection, schedule: Q01DX005 (iv), vehicle: other
  T/C: 105 % of control
dose: 5.5 mg/kg/injection, schedule: Q01DX005 (iv), vehicle: other
  T/C: 101 % of control
dose: 11.0 mg/kg/injection, schedule: Q01DX005 (iv), vehicle: other
  T/C: 103 % of control
dose: 22.0 mg/kg/injection, schedule: Q01DX005 (iv), vehicle: other
  T/C: 104 % of control
dose: 44.0 mg/kg/injection, schedule: Q01DX005 (iv), vehicle: other
  T/C: 101 % of control

## O=[N+]([O-])O.[Ga]
dose: 32.0 mg/kg/injection, schedule: Q01DX005 (ip), vehicle: saline
  T/C: 111 % of control
dose: 64.0 mg/kg/injection, schedule: Q01DX005 (ip), vehicle: saline
  T/C: 111 % of control
dose: 128.0 mg/kg/injection, schedule: Q01DX005 (ip), vehicle: saline
  T/C: 104 % of control

## [N-]=[N+]=CC(=O)CCC(N)C(=O)O (centres undefined)
dose: 0.05 mg/kg/injection, schedule: Q01DX009 (ip), vehicle: saline
  T/C: 107 % of control
dose: 0.2 mg/kg/injection, schedule: Q01DX009 (ip), vehicle: saline
  T/C: 105 % of control
dose: 0.4 mg/kg/injection, schedule: Q01DX009 (ip), vehicle: saline
  T/C: 103 % of control

## CC1(C)N=C(N)N=C(N)N1c1ccc(OCc2ccc(C(=O)Nc3cccc(S(=O)(=O)F)c3)cc2)c(Cl)c1
dose: 50.0 mg/kg/injection, schedule: Q04DX003 (ip), vehicle: saline
  T/C: 100 % of control
dose: 100.0 mg/kg/injection, schedule: Q04DX003 (ip), vehicle: saline
  T/C: 94 % of control
dose: 200.0 mg/kg/injection, schedule: Q04DX003 (ip), vehicle: saline
  T/C: 105 % of control
dose: 400.0 mg/kg/injection, schedule: Q04DX003 (ip), vehicle: saline
  T/C: 88 % of control

## CC/C(=C(/CC)c1ccc(O)cc1)c1ccc(O)cc1
[1]
  T/C: 105 % of control
[8]
  T/C: 104 % of control
[2]
  T/C: 106 % of control
dose: 16.0 mg/kg/injection, schedule: Q01DX009 (ip), vehicle: saline
  T/C: 107 % of control
[3]
  T/C: 107 % of control
dose: 32.0 mg/kg/injection, schedule: Q01DX009 (ip), vehicle: saline
  T/C: 158 % of control
[4]
  T/C: 100 % of control
dose: 64.0 mg/kg/injection, schedule: Q01DX009 (ip), vehicle: saline
  T/C: 116 % of control
[5]
  T/C: 115 % of control
dose: 128.0 mg/kg/injection, schedule: Q01DX009 (ip), vehicle: saline
  T/C: 90 % of control
[6]
  T/C: 106 % of control
dose: 256.0 mg/kg/injection, schedule: Q01DX009 (ip), vehicle: saline
  T/C: 88 % of control
[7]
  T/C: 86 % of control

## CN(CO)c1nc(N(C)CO)nc(N(C)CO)n1
dose: 3.12 mg/kg/injection, schedule: Q01DX009 (ip), vehicle: saline with Tween-80
  T/C: 98 % of control
dose: 6.25 mg/kg/injection, schedule: Q01DX009 (ip), vehicle: saline with Tween-80
  T/C: 106 % of control
[9]
  T/C: 100 % of control and 101 % of control
dose: 25.0 mg/kg/injection, schedule: Q01DX009 (ip), vehicle: saline with Tween-80
  T/C: 116 % of control and 104 % of control
dose: 50.0 mg/kg/injection, schedule: Q01DX009 (ip), vehicle: Klucel (hydroxypropylcellulose) (HPC)
  T/C: 115 % of control and 93 % of control
[10]
  T/C: 103 % of control and 106 % of control
[11]
  T/C: 121 % of control and 112 % of control

## NC(CSC(c1ccccc1)(c1ccccc1)c1ccccc1)C(=O)O (centres undefined)
dose: 32.0 mg/kg/injection, schedule: Q01DX005 (ip), vehicle: Klucel (hydroxypropylcellulose) (HPC)
  T/C: 99 % of control and 106 % of control
dose: 64.0 mg/kg/injection, schedule: Q01DX005 (ip), vehicle: Klucel (hydroxypropylcellulose) (HPC)
  T/C: 102 % of control and 110 % of control
[12]
  T/C: 114 % of control and 100 % of control
[13]
  T/C: 121 % of control

## N=[N+]=CC(=O)CCC(NC(=O)C(CCC(=O)C=[N+]=N)NC(=O)CCC(N)C(=O)O)C(=O)O (centres undefined)
dose: 0.05 mg/kg/injection, schedule: Q01DX005 (ip), vehicle: Klucel (hydroxypropylcellulose) (HPC)
  T/C: 106 % of control
dose: 0.1 mg/kg/injection, schedule: Q01DX005 (ip), vehicle: Klucel (hydroxypropylcellulose) (HPC)
  T/C: 96 % of control and 104 % of control
dose: 0.2 mg/kg/injection, schedule: Q01DX005 (ip), vehicle: Klucel (hydroxypropylcellulose) (HPC)
  T/C: 100 % of control and 103 % of control
dose: 0.4 mg/kg/injection, schedule: Q01DX005 (ip), vehicle: Klucel (hydroxypropylcellulose) (HPC)
  T/C: 100 % of control and 105 % of control

## CCN(C)N=Nc1ccc(C(N)=O)cc1
dose: 25.0 mg/kg/injection, schedule: Q01DX009 (ip), vehicle: Klucel (hydroxypropylcellulose) (HPC)
  T/C: 101 % of control
[11]
  T/C: 154 % of control

## COc1cc2c(c3c1c(=O)c1ccccc1n3C)C=CC(C)(C)O2
[12]
  T/C: 107 % of control
[13]
  T/C: 112 % of control
dose: 512.0 mg/kg/injection, schedule: Q01DX005 (ip), vehicle: Klucel (hydroxypropylcellulose) (HPC)
  T/C: 113 % of control

## O=C1C=CN(C2OC(CO)C(O)C2O)C(=O)C1 (centres undefined)
dose: 12.5 mg/kg/injection, schedule: Q01DX009 (ip), vehicle: saline
  T/C: 112 % of control
[14]
  T/C: 106 % of control
[15]
  T/C: 104 % of control
[16]
  T/C: 106 % of control
dose: 200.0 mg/kg/injection, schedule: Q01DX009 (ip), vehicle: saline
  T/C: 94 % of control
dose: 400.0 mg/kg/injection, schedule: Q01DX009 (ip), vehicle: saline
  T/C: 94 % of control

## CC1(C)N=C(N)N=C(N)N1c1ccc(OCCCNC(=O)Nc2cccc(S(=O)(=O)F)c2)c(Cl)c1
[14]
  T/C: 105 % of control
[15]
  T/C: 111 % of control
[16]
  T/C: 100 % of control

## N[C@H](C(=O)O)[C@@H]1CC(Cl)=NO1
dose: 4.0 mg/kg/injection, schedule: Q01DX009 (ip), vehicle: saline
  T/C: 168 % of control
[8]
  T/C: 114 % of control

## Nc1nncs1
dose: 64.0 mg/kg/injection, schedule: Q01DX005 (ip), vehicle: saline with Tween-80
  T/C: 119 % of control
dose: 128.0 mg/kg/injection, schedule: Q01DX005 (ip), vehicle: saline with Tween-80
  T/C: 160 % of control and 169 % of control
dose: 256.0 mg/kg/injection, schedule: Q01DX005 (ip), vehicle: saline with Tween-80
  T/C: 180 % of control

## CC1(C)N=C(N)N=C(N)N1c1ccc(CCCCc2ccc(S(=O)(=O)F)cc2Cl)c(Cl)c1
[9]
  T/C: 97 % of control
[10]
  T/C: 116 % of control
dose: 100.0 mg/kg/injection, schedule: Q01DX009 (ip), vehicle: saline with Tween-80
  T/C: 96 % of control
dose: 133.0 mg/kg/injection, schedule: Q04DX003 (ip), vehicle: saline with Tween-80
  T/C: 102 % of control
dose: 200.0 mg/kg/injection, schedule: Q04DX003 (ip), vehicle: saline with Tween-80
  T/C: 108 % of control
dose: 300.0 mg/kg/injection, schedule: Q04DX003 (ip), vehicle: saline with Tween-80
  T/C: 95 % of control

## N[C@@H](Cc1ccc(N(CCCl)CCCl)cc1)C(=O)O
dose: 0.25 mg/kg/injection, schedule: Q03HX008 (ip), vehicle: saline
  T/C: 105 % of control
dose: 0.5 mg/kg/injection, schedule: Q03HX008 (ip), vehicle: saline
  T/C: 115 % of control
